Assay [1] deals with clinical isolate CR-K. pneumoniae 7225. Put plainly: Non-lethal mouse peritonitis infection model. The class given is in vivo, Swiss albino mice. Here is the method:
(§1) For both lethal and non-lethal infection models involving Carbapenem resistant Klebsiella pneumoniae suitable strains, number of mice per treatment and bacterial infection dose were predetermined in preliminary experiments.
Each mouse (n=6 per group) received an intraperitoneal (i.p.) injection of 200 μl of bacterial suspension (1×10^4 CFU ml^−1).
Mice were then treated once daily for two subsequent days (i.e. 24 h and 48 h). Twenty-four-hours after the last dose, the mice were euthanized via cervical dislocation and their spleen and liver excised, homogenized in PBS and plated onto Hichrome™ Klebsiella selective media (HiMedia Laboratories, PA, USA). The plates were incubated at 35° C. for 24 h and bacterial counts were determined (CFU g^−1 organ).
Based on the significance of the SP-azaBIMs to restore the in vitro efficacy of antibiotics against high priority pathogenic bacteria, we examined if these compounds could provide proof of concept that they could be used to treat in vivo infections. To test this, we performed both non-lethal and lethal intraperitoneal infection models in Swiss Albino mice.
There was a significant reduction in the K. pneumoniae load in both the liver (FIG. 2a) and spleen (FIG. 2b) for the combination therapies compared to the respective antibiotic monotherapies. […] Colistin (Col) (10 mg kg^−1) was used as the positive control in this case. K. pneumoniae load in the liver (FIG. 2a) and spleen (FIG. 2b) was determined by selective plating on Hichrome™ Klebsiella selective media. Data bars represent the average (n=6 mice per treatment group)±standard error.

The next assay deals with K. pneumoniae 7225. Nature of the assay: Lethal peritonitis infection model (survival). The class given is in vivo, Swiss albino mice. The note with it: for Survival in lethal K. pneumoniae infection: each 10 mg kg^−1 s.c. Here is the method:
as §1
For the lethal peritonitis infections, mice were treated as in the non-lethal infection studies except the inoculation dose was 2×10^7 CFU mL^−1 K. pneumoniae 7225. The mice were then divided into the previously listed treatment regimens and treatment was provided every 24 h for two days after infection. Mice were monitored for mortality for 7 days and the moribund mice were euthanized humanely using cervical dislocation.
For survival experiments, Swiss albino mice were given lethal doses of K. pneumoniae 7225 (C) (2×10^7 CFU ml^−1) via i.p. injection. Mice were treated the same as in the non-lethal peritonitis experiments and mortality was monitored for 7 days. Data lines represent the percent of mice (n=10 mice per treatment group) that survived daily. […]

Assay [2] has as its system Klebsiella pneumoniae ATCC BAA-2814. Nature of the assay: Gene expression analysis by quantitative reverse transcription PCR. The class given is cell-based. Here is the method:
Cell treatment and RNA extraction: Overnight cultures of Klebsiella pneumoniae ATCC BAA-2814 grown on Brain Heart Infusion (BHI) agar was harvested and washed in phosphate buffer saline (pH=7.4) twice. Fresh Brain Heart infusion broth was inoculated with K. pneumoniae cells to a final concentration of 10^6 CFU mL^−1. Cells were subjected to the following treatments: T0—Vehicle only (ddH2O); T1—Meropenem only (0.25 MIC; 8 μg mL^−1); T2—Meropenem 0.25 MIC+SP-azaBIM 136 (2 ug mL^−1). Treated cells were incubated at 35° C. at 200 rpm and total RNA was extracted at 1 h and 6 h post exposure using TRIzol reagent (Life Technologies) following the manufacturer's protocol before eluting in DEPC treated water. Three biological replicates were included for each treatment.
Quantitative reverse transcription PCR analysis: Reverse transcription was done using the GoScript Reverse Transcriptase Kit (Promega, USA) employing a mixture (1:1) of random and oligo dT primers with 2 μg RNA as starting material in a 20-μL reaction following the manufacturers protocols. cDNA samples were then quantified by real-time PCR using specific primers in an Applied Biosystems 7500 Fast Real-Time PCR system (Life Technologies Corp., USA) and the data analysed using the 2^(−ΔΔct) method. Thermal cycling was performed using a two-step PCR amplification standard procedure at 95° C. for 30 s and 35 cycles of 95° C. for 5 s and 60° C. for 30 s. The expression levels of all the genes were normalized using the K. pneumoniae RNA polymerase sigma factor (rpoD) gene as an internal standard.
To examine this hypothesis, we investigated the expression of genes in K. pneumoniae ATCC […] that were affected by SP-azaBIM 136 treatment. Expression of key transcription factors and their associated downstream resistance and pathogenicity genes was examined in Klebsiella pneumoniae cells treated with meropenem and a combination of meropenem and SP-azaBIM 136. Cells in the exponential phase were either treated with 0.25 MIC (8 μg mL^−1) of Meropenem only or a combination of 0.25 MIC meropenem and 10 μg mL^−1 of SP-azaBIM 136. Untreated cells served as the control for baseline gene expression. Cells were exposed to each agent for 1 h and 6 h, after which the total RNA was extracted, and cDNA synthesis performed. […] The addition of SP-azaBIM 136 was theorized to revert the expression of the relevant genes closer to baseline expression levels.

[3] abbreviates: co-administered with Meropenem 10 mg kg^−1, SP-azaBIM 136 10 mg kg^−1 s.c. at 1, 24, 48 h, versus Meropenem only.
[4] abbreviates: combination with Ciprofloxacin 10 mg kg^−1, SP-azaBIM 136 10 mg kg^−1 s.c., compared to Ciprofloxacin only.
Setting [5] is: Meropenem 0.25 MIC + SP-azaBIM 136, 6 h.
The mark [6] stands for this setting: addition of SP-azaBIM 136 to meropenem, versus meropenem only.

The values that follow come from patent US20230382926A1, “COMPOUNDS AND USES THEREOF” (The University of The West Indies, priority 2022, published 2023).

On to `Oc1ccc(C(c2c[nH]c3cnccc23)c2c[nH]c3cnccc23)cc1` [SP-6azaBIM 136, 4-(bis(1H-pyrrolo[2,3-c]pyridin-3-yl)methyl)phenol], for which the “K. pneumoniae load in the organs” value in assay [1] (SP-azaBIM 136 on its own, 10 mg kg^−1) is reported as “not able to reduce K. pneumoniae load in the organs”. In assay [1] (setting [3]), the “Reduction of bacterial cells in the liver” value was found to be 41 fold and the “Reduction of bacterial cells in the spleen” value came out at 14 fold. In assay [1] (setting [4]), the “Reduction of bacterial cells in the liver” value is given as roughly 53 fold and the “Reduction of bacterial cells in the spleen” value is roughly 12 fold. For the same compound, the “Protection to lethal infections” value with K. pneumoniae 7225 (SP-azaBIM 136 on its own) is recorded as “nor provide any protection to lethal infections”. Also, the “Survival in lethal K. pneumoniae infection” value in the assay on K. pneumoniae 7225 (co-treatment with Ciprofloxacin, 7 days) is 100%. Moreover, the “Survival in lethal K. pneumoniae infection” value with K. pneumoniae 7225 (co-treatment with Meropenem, 7 days) is reported as 90%. Further, the “Mortality in lethal K. pneumoniae infection” value in the assay with K. pneumoniae 7225 (monotherapy 10 mg kg^−1 s.c., 2×10^7 CFU ml^−1 i.p., 7 days) was found to be 100%. Also, the “ROB gene expression relative to baseline levels” value in assay [2] (Meropenem 0.25 MIC + SP-azaBIM 136 (2 ug mL^−1, 10 μg mL^−1 elsewhere in the source), 1 h) is given as 0.35 times that of baseline levels. In assay [2] (Meropenem 0.25 MIC + SP-azaBIM 136, 1 h), the “soxS gene expression compared to untreated cells” value is listed as 0.28 fold. Further, in assay [2] (setting [5]), the “ROB gene expression relative to baseline levels” value amounted to 1.4 fold and the “soxS gene expression compared to untreated cells” value is 0.76 fold. Also, in assay [2] (Meropenem + SP-azaBIM 136), the “Expression of extended spectrum beta-lactamases and carbapenemase gene KPC” value was “significantly suppressed”; the TEM-1 gene expression result is “no significant variation in expression”; the “marA regulatory gene expression response” value was “not as profound as the other two genes”. Also, the “Virulence gene expression (fimH, entB, iutA, rpmA)” value in assay [2] (SP-azaBIM 136 added to meropenem, 1 h and 6 h) was “expression decreased significantly”. In assay [2] (setting [6]), the “Reduction in mexA gene expression” value was found to be 17 fold and the “Reduction in norB gene expression” value is reported as 4.5 fold.
